Source: US10206911B2, “Androgen receptor variants and methods for making and using” (MEMORIAL SLOAN-KETTERING CANCER CENTER, priority 2012, dated 2019)
Residue numbers refer to the chain shown, from its start. Entries after “also recorded” stand apart in the source; their conditions may differ.

Experiments:
[1] = system: DU145 (an AR null human prostate cancer cell line); assay: DU145 cell viability (CellTiterGLO); format: cell-based; details: 10 μM, full serum containing media
Description: DU145 cells were cultured in full serum containing media with 10 uM of the indicated antiandrogens. CellTiterGLO assay was performed on days 0, 3, and 6 to determine cell viability. RLU=relative light units.

[2] = system: VCaP cells overexpressing AR F876L; assay: VCaP growth assay (CellTiter-GLO); format: cell-based, human; details: full-serum containing media, 10 μM
[3] = system: CWR22PC cells expressing AR F876L; assay: CWR22PC cell viability (CellTiterGLO); format: cell-based, human; details: full serum media; days 1, 4, and 7
Description: CellTiterGLO assay was performed on days 1, 4, and 7 to measure cell viability. […] CellTiterGLO assay was performed on days 1, 4, and 7 to measure cell viability.
CellTiterGLO assay was performed on days 1, 4, and 7 to determine cell viability. RLU=relative light units.

[4] = system: VCaP cells expressing AR WT and AR F876L; assay: Western blot of AR signaling and PARP cleavage in VCaP cells; format: cell-based, human; details: 10 μM, 4 days, media containing FBS
Description: Fetal bovine serum (FBS) and charcoal-stripped, dextran-treated fetal bovine serum (CSS) were purchased from Omega Scientific. […] Serial dilutions of all drugs were made using DMSO. Antibodies used for immunoblot assays were b-actin (AC-15, Sigma) PARP (#9543; Cell Signaling Technology), FKBP5 (IHC-00289, Bethyl), b-tubulin (D-10) and androgen receptor (N-20) (both from Santa Cruz Biotechnology). Protein lysates were prepared in M-PER protein extraction reagent (Pierce) or 1% SDS buffer. The chromatin immunoprecipitation assay was conducted using a kit (Upstate) with an antibody for androgen receptor (PG-21, Upstate). Nontarget and mouse AR siRNA pools were from the ON-TARGETplus collection (Dharmacon).

AR F876L = biological target: T1, AR F876L (Homo sapiens, UniProt P10275, DEL79-80/DUP473-473/F877L); assay: EGFP reporter assay of AR activity, LNCaP-Pb.PSE.EGFP cells, flow cytometry; format: cell-based; details: 10 μM, 4 days of treatment
T1 construct: expressed in transfected cells
T1 sequence (P10275 with tags, fused parts or gaps DEL79-80/DUP473-473/F877L): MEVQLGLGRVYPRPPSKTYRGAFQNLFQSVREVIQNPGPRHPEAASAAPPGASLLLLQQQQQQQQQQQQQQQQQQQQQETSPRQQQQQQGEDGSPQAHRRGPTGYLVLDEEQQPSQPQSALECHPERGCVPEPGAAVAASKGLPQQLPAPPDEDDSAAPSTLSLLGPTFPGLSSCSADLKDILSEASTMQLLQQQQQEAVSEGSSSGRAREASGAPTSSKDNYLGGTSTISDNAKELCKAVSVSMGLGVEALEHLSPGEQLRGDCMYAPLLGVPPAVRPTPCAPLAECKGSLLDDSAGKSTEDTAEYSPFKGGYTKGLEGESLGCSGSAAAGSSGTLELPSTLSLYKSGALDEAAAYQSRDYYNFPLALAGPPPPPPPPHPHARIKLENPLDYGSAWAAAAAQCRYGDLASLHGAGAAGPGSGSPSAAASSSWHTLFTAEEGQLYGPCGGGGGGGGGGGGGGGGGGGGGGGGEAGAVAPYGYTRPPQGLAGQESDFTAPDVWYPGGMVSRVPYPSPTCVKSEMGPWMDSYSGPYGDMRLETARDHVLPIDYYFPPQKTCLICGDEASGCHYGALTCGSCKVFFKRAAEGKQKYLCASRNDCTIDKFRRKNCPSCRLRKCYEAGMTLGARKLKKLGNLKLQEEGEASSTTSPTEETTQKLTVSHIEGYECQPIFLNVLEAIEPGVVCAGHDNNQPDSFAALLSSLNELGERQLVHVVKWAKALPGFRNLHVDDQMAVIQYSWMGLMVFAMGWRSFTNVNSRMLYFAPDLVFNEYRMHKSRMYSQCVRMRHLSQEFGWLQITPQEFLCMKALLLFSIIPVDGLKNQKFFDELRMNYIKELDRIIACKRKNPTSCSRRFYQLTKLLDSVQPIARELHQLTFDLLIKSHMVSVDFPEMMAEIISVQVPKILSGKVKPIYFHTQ
Description: (§1) This clone was used for all flow cytometry assays and for the FACS-based resistance screens.

AR WT = biological target: T2, AR WT (Homo sapiens, UniProt P10275, DEL79-80/DUP473-473); assay: as above; format: cell-based; details: 10 μM, 4 days of treatment
T2 construct: expressed in transfected cells; host or cells: LNCaP-Pb.PSE.EGFP (pantropic retroviral infection, blasticidin selection)
T2 sequence (P10275 with tags, fused parts or gaps DEL79-80/DUP473-473): T1 sequence (P10275 with tags, fused parts or gaps DEL79-80/DUP473-473/F877L) with L876F
Description: as §1

[5] = system: CWR22PC cells expressing AR WT; assay: CWR22PC cell viability (CellTiterGLO); format: cell-based, human; details: full serum media; days 1, 4, and 7
Description: […]. […] CellTiterGLO assay was performed on days 1, 4, and 7 to measure cell viability. […] CellTiterGLO assay was performed on days 1, 4, and 7 to measure cell viability.
[…]. […] CellTiterGLO assay was performed on days 1, 4, and 7 to determine cell viability. RLU=relative light units.

[6] = system: VCaP cells overexpressing AR WT; assay: VCaP growth assay (CellTiter-GLO); format: cell-based, human; details: full-serum containing media, 10 μM

CNC(=O)c1ccc(N2C(=S)N(c3ccc(C#N)c(C(F)(F)F)c3)C(=O)C23CCCC(C)(C)C3)cc1F (racemic) [(±)-DR103, 4-(3-(4-cyano-3-(trifluoromethyl)phenyl)-7,7-dimethyl-4-oxo-2-thioxo-1,3-diazaspiro[4.5]decan-1-yl)-2-fluoro-N-methylbenzamide]
Proliferation of DU145 cells ([1]; listed as (+)-DR103): did not impact the proliferation
Proliferation of DU145 cells ([1]; listed as DR103): no significant growth inhibition
Growth of VCaP cells overexpressing AR F876L [2]: inhibited the growth
Growth of VCaP cells overexpressing AR F876L ([2]; listed as (+)-DR103): effectively inhibits the growth of both models
Growth/viability of CWR22PC cells expressing AR F876L [3]: growth inhibition
Endogenous AR signaling (Western blot) [4]: inhibited endogenous AR signaling
PARP cleavage (Western blot) [4]: induced PARP cleavage
Endogenous AR signaling (Western blot) ([4]; listed as DR103): efficiently inhibits AR signaling
PARP cleavage (Western blot) ([4]; listed as DR103): induces PARP cleavage
Effect on transcriptional activity of AR F876L in EGFP reporter assay (agonism or antagonism) (AR F876L): effectively antagonized; also recorded: potently inhibited
Effect on transcriptional activity of AR WT in EGFP reporter assay (agonism or antagonism) (AR WT): effectively antagonized
Growth/viability of CWR22PC cells, AR WT [5]: growth inhibition
Growth of VCaP cells, AR WT [6]: inhibited the growth
Growth of VCaP cells, AR WT ([6]; listed as (+)-DR103): effectively inhibits the growth of both models
